What was measured:
T7 RNA polymerase = T7 RNA polymerase (Escherichia phage T7, UniProt P00573); assay: In vitro transcription yields of modified mRNA; type: biochemical; details: for EPO In Vitro Transcription yield: EPO mRNA made with the modified NTP(s); for GCSF In Vitro Transcription yield: GCSF mRNA made with the modified NTP(s); for Luc In Vitro Transcription yield: Luciferase mRNA made with the modified NTP(s)
[1] = tested on: Rabbit Reticulocyte Lysate; assay: In vitro translation screen, firefly Luciferase modRNA (luciferase assay, relative light units); type: biochemical; details: Table 20; 250 ng modRNA, 45 min, 30° C.
[2] = tested on: Rabbit Reticulocyte Lysate; assay: In vitro translation screen, human GCSF modRNA (GCSF ELISA); type: biochemical; details: Table 20; 250 ng modRNA, 45 min, 30° C.
[3] = tested on: Rabbit Reticulocyte Lysate; assay: In vitro translation screen, human EPO modRNA (EPO ELISA); type: biochemical; details: Table 20; 250 ng modRNA, 45 min, 30° C.
HeLa cells [4] = assay: Transfection in HeLa cells, Luciferase modRNA (luciferase assay, relative light units); type: cell-based, human; details: Table 22, 83 ng modRNA, Lipofectamine 2000, 18 h to 22 h
HeLa cells [5] = assay: Transfection in HeLa cells, human GCSF modRNA (GCSF ELISA of supernatant); type: cell-based; details: Table 22, 250 ng modRNA, 18 h to 22 h
HeLa cells [6] = assay: Transfection in HeLa cells, human EPO modRNA (EPO ELISA of supernatant); type: cell-based; details: Table 22, 18 h to 22 h
human PBMC = assay: PBMC cytokine assay, interferon-alpha production (IFN-alpha multi-subtype ELISA); type: cell-based
Protocol: 50 mL of human blood from three donors was received from Research Blood Components (Brighton, Mass.) in sodium heparin tubes. […] The tubes were centrifuged at 2000 rpm for 30 minutes with low acceleration and braking (Thermo, Waltham, Mass., 75004506). The tubes were removed and the buffy coat PBMC layers were gently transferred to a fresh 50 mL conical and washed with DPBS. The tubes were centrifuged at 1450 rpm for 10 minutes. The supernatant was aspirated and the PBMC pellets were resuspended and washed in 50 mL of DPBS. The tubes were centrifuged at 1450 rpm for 10 minutes. […] The cell suspensions were adjusted to a concentration of 3.0×10^6 cells/mL live cells. […] Within 30 minutes, transfection mixtures were added to each well at a volume of 50 μL per well. […] The transfection mixtures were then transferred to each of the human PBMC plates at 50 μL per well (6 wells per mRNA sample). The plates were then incubated at 37° C. […] In order to harvest the supernatant, plates were centrifuged at 1450 rpm for 5 min in a swinging plate rotor. The supernatant of 6 wells transfected with the same mRNA was carefully harvested and pooled in a single well of a fresh 96-well plate. Supernatants were either frozen or used fresh until ELISA analysis was done. The ability of unmodified and modified mRNA to trigger innate immune recognition as measured by interferon-alpha production.

T7 RNA polymerase, sequence (P00573 whole entry): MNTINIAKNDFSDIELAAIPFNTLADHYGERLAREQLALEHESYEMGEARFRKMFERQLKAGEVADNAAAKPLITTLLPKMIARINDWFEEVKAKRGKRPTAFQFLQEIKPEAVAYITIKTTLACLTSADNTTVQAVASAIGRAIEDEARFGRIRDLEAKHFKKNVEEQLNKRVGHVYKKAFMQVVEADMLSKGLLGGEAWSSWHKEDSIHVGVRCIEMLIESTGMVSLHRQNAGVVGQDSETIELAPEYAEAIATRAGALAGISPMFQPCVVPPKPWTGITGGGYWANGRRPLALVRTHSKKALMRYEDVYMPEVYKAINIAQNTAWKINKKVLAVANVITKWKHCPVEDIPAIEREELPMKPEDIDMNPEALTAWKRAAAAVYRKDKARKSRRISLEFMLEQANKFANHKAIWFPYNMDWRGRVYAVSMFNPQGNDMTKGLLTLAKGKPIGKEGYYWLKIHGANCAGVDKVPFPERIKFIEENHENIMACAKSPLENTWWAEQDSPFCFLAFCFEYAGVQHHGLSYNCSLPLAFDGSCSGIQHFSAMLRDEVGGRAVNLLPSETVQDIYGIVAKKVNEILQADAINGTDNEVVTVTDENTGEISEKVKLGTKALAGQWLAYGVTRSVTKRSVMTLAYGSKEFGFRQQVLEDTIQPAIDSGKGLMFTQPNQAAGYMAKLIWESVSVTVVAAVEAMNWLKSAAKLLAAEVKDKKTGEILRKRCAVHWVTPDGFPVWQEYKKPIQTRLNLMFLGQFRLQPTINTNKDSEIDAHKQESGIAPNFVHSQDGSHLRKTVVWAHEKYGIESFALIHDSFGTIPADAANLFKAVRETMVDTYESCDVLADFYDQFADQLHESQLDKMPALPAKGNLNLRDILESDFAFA

SMILES | EPO In Vitro Transcription yield (T7 RNA polymerase) | GCSF In Vitro Transcription yield (T7 RNA polymerase) | Luc In Vitro Transcription yield (T7 RNA polymerase) | Luc Expression (RLUs) [1] | GCSF Expression [2] | Epo Expression [3] | Luc Expression (RLUs) (HeLa cells [4]) | GCSF Expression (HeLa cells [5]) | Epo Expression (HeLa cells [6]) | interferon-alpha concentration in PBMC supernatant (human PBMC; Luc mRNA, 1st value in cell) | interferon-alpha concentration in PBMC supernatant (human PBMC; Luc mRNA, 2nd value in cell) | interferon-alpha concentration in PBMC supernatant (human PBMC; Luc mRNA, 3rd value in cell) | interferon-alpha concentration in PBMC supernatant (human PBMC; hEPO mRNA, 1st value in cell) | interferon-alpha concentration in PBMC supernatant (human PBMC; hEPO mRNA, 2nd value in cell) | interferon-alpha concentration in PBMC supernatant (human PBMC; hEPO mRNA, 3rd value in cell) | interferon-alpha concentration in PBMC supernatant (human PBMC; hGCSF mRNA, 1st value in cell) | interferon-alpha concentration in PBMC supernatant (human PBMC; hGCSF mRNA, 2nd value in cell) | interferon-alpha concentration in PBMC supernatant (human PBMC; hGCSF mRNA, 3rd value in cell)
Nc1nc(=O)n([C@@H]2O[C@H](COP(=O)(O)OP(=O)(O)OP(=O)(O)O)C(O)C2O)cc1Br (stereo in doubt) [03601014008 (379), 5-Bromo-CTP] | 0.3454 mg | 0.3685 mg | 0.5161 mg | 194900 RLUs | 13510 pg/mL | 8581 pg/mL | 125700 RLUs | 1003000 pg/mL | 3263000 pg/mL | 5470 pg/mL | 1080 pg/mL | 5420 pg/mL | 2300 pg/mL | 487.5 pg/mL | 500 pg/mL | 2808.33 pg/mL | 2266.67 pg/mL | 1650 pg/mL
COc1cn([C@@H]2O[C@H](COP(=O)(O)OP(=O)(O)OP(=O)(O)O)C(O)C2O)c(=O)[nH]c1=O (stereo in doubt) [Compound 00901013007, 5-methoxy-UTP] | 0.1727 mg | 0.1546 mg | 0.3817 mg | 306600 RLUs | 26440 pg/mL | 17530 pg/mL | 31580 RLUs | 1399000 pg/mL | 1116000 pg/mL | 390 pg/mL | -70 pg/mL | -170 pg/mL | -210 pg/mL | 162.5 pg/mL | 150 pg/mL | 350 pg/mL | -41.66 pg/mL | 40 pg/mL
CC(=O)Nc1ccn([C@@H]2O[C@H](COP(=O)(O)OP(=O)(O)OP(=O)(O)O)C(O)C2O)c(=O)n1 (stereo in doubt) [Compound 00901014007, N4-Ac-CTP] | 0.4351 mg | 0.3658 mg | 0.4394 mg | 167600 RLUs | 8794 pg/mL | 8675 pg/mL | 141300 RLUs | 2094000 pg/mL | 2907000 pg/mL | 7170 pg/mL | 2500 pg/mL | 5879 pg/mL | 4050 pg/mL | 2137.5 pg/mL | 5850 pg/mL | 5683.33 pg/mL | 4883.33 pg/mL | 4590 pg/mL

Source: patent publication US20160304552A1, “MODIFIED NUCLEIC ACID MOLECULES AND USES THEREOF” (MODERNA THERAPEUTICS, INC., priority 2013, published 2016)
